Laboratory results taken from US6803385B2, “Hydroxyeicosatetraenoic acid analogs and methods of their use in treating dry eye disorders” (Alcon, Inc., priority 1999, dated 2004).

Test system: rabbit model of dry eye (corneal staining)
Assay: Inhibition of corneal staining in a rabbit model of dry eye (ConA lacrimal gland inflammation plus desiccation, methylene blue uptake)
Format: in vivo, New Zealand white rabbits
Settings: 1 μM, topical QID 50 μl, methylene blue corneal staining (A660) vs BSS vehicle
Procedure: Compounds 173 and 175 were evaluated for their ability to inhibit corneal staining in a rabbit model of dry eye, as per the following experimental protocol.
New Zealand white (NZA) rabbits (approximately 2.5 kg) were obtained from Myrtle's Rabbitry (Thompson Station, Tenn.). Animals were maintained in a controlled environment with a 12-hour on/off light cycle at 65±5° F. and at least 30% humidity. All aspects of animal handling, housing and experimentation conformed to the ARVO Statement for the Use of Animals in Ophthalmic and Vision Research.
Rabbits were randomized and dosed topically QID with 50 μl of test article or BSS® solution beginning 24 hours prior to lacrimal gland injection. […]
Desiccation was initiated three days following ConA injection by placing conscious rabbits into an environmental chamber (20%-30% humidity/75° F.). […] The concentration of the extracted dye was determined spectrophotometrically by measuring its absorbance at λ=660 nanometers (A660). Data are expressed as mean±standard deviation (S.D.). Percent inhibition was calculated as {1−[(A660test item−A660Normal)/(A660BSS−A660Normal)]}×100, where A660test item is the absorbance of dye from ConA-injected eyes dosed with the test item, A660Normal is the absorbance of dye from saline-injected eyes, and A660BSS is the absorbance of dye in ConA-injected eyes dosed with BSS® solution vehicle.

`CCCCC[C@H](O)/C=C/C=C\C/C=C\C/C=C\CCCC(=O)O` [Compound 15S-HETE, (15S)-(5Z,8Z,11Z,13E)-15-hydroxy-eicosa-5,8,11,13-tetraenoic acid] was tested, and the “% Inhibition ± S.D.” value (Experiment 1) was 70 ± 18% and the “% Inhibition ± S.D.” value (Experiment 2) was 77% ± 18%.
